# Read-outs that look alike come from different tables or passages of the source.
# What was measured:
# [1] = test system: Rhipicephalus sanguineus (Brown Dog Tick); experiment: whole plant or invertebrate; settings: for mortality at 200 ppm: Rhipicephalus sanguineus, read-out: Contact SP Rhicicep PCT Mortality (%); for Contact SP Rhicicep PCT Mortality (%): 200 ppm
# Description: A solution of the test compound was used to coat the inner wall of glass vials and to treat two filter papers. Once dried, one filter paper was placed in the cap of the vial and the other in the bottom of the vial. Each treated vial was infested with 10 adult Rhipicephalus sanguineus (Brown Dog Tick). […]
# Haematobia irritans = experiment: whole plant or invertebrate; settings: 5 μg/cm^2; for mortality at 5 µg/cm2: Haematobia irritans, read-out: Contact SP Horn Fly PCT Mortality (%)
# Protocol: (§1) A solution of the test compound was used to treat a filter paper contained within a Petri dish and the filter paper was allowed to evaporate to dryness. A small piece of absorbent cotton moistened with 10% sucrose and ten adult flies (Haematobia irritans or Stomoxys calcitrans) were added to each dish. Dishes were capped and held at room temperature. Assessments were performed at 4 and 24 hours after infestation in comparison with untreated controls.
# Stomoxys calcitrans = experiment: whole plant or invertebrate; settings: 5 μg/cm^2; for mortality at 5 µg/cm2: Stomoxys calcitrans, read-out: Contact SP Stable Fly PCT Mortality
# Protocol: as §1
# [2] = test system: Haemonchus contortus larvae; experiment: Activity against H. contortus, larval development L1 to L3 (LDA); settings: 5 ppm; 4 days
# Protocol: Twenty L1 Haemonchus contortus larvae were added to wells of a microtitre plate containing a nutrient medium and the test compound in DMSO. The microtitre plate was then held at 27° C. where the L1 larvae were allowed to develop. […] Larvae exposed to DMSO and no test compound served as controls
# [3] = test system: microfilaria of Dirofilaria immitis; experiment: Activity against D. immitis microfilaria (Mf); settings: 5 ppm; 5 days
# Protocol: Four hundred to six hundred microfilaria of Dirofilaria immitis were added to wells of a microtitre plate containing RPMI media and the test compound in DMSO. The microtitre plate was then held at 37° C. in an environment containing 5% CO2. An assessment was conducted at 5 days to determine survival of the microfilaria. Microfilaria exposed to DMSO and no test compound served as controls.
# Ctenocephalides felis = experiment: whole plant or invertebrate; settings: 72 hr; for mortality at 200 ppm: Ctenocephalides felis, read-out: Assay: Minilnge Organism: C. felis Test Parameter: PCT Mortal; for Assay: Minilnge Organism: C. felis Test Parameter: PCT Mortal: Dose: 200 ppm
structure (smiles),measurement,setting,value
CC(C)CNC(=O)c1ccc(COc2cccc(C(F)(F)F)c2)cn1 [Compound 5],mortality at 200 ppm,[1]; timepoint 4 hrs,50%
same,mortality at 200 ppm,[1]; timepoint 24 hrs,80%
same,mortality at 5 µg/cm2,Haematobia irritans; timepoint 4 hrs,100%
same,mortality at 5 µg/cm2,Haematobia irritans; timepoint 24 hrs,100%
same,mortality at 5 µg/cm2,Stomoxys calcitrans; 4 hrs,70%
same,mortality at 5 µg/cm2,Stomoxys calcitrans; 24 hrs,90%
CC(C)CNC(=O)c1ccc(CCOc2cccc(OC(F)(F)F)c2)cn1 [Compound 12],mortality at 5 µg/cm2,Haematobia irritans; timepoint 4 hrs,80%
same,mortality at 5 µg/cm2,Haematobia irritans; timepoint 24 hrs,100%
same,mortality at 5 µg/cm2,Stomoxys calcitrans; 4 hrs,50%
same,mortality at 5 µg/cm2,Stomoxys calcitrans; 24 hrs,90%
CC(C)CNC(=O)c1ccc(CCOc2ccc(OC(F)(F)F)cc2)cn1 [Compound 13],mortality at 5 µg/cm2,Haematobia irritans; timepoint 4 hrs,60%
same,mortality at 5 µg/cm2,Haematobia irritans; timepoint 24 hrs,70%
same,LDA SP H. cont. PCT Mot M,[2],95%
O=C(NCC1CCOCC1)c1ccc(CCOc2ccc(OC(F)(F)F)cc2)cn1 [Compound 14],mortality at 5 µg/cm2,Haematobia irritans; timepoint 4 hrs,80%
same,mortality at 5 µg/cm2,Haematobia irritans; timepoint 24 hrs,100%
same,LDA SP H. cont. PCT Mot M,[2],100%
same,Mf sp D. immitis PCT Motili,[3],88%
O=C(NCC1CCOCC1)c1ccc(COc2ccc(OC(F)(F)F)cc2)cn1 [Compound 24],mortality at 200 ppm,[1]; timepoint 4 hrs,0%
same,mortality at 200 ppm,[1]; timepoint 24 hrs,0%
same,mortality at 200 ppm,Ctenocephalides felis,0%
same,mortality at 5 µg/cm2,Haematobia irritans; timepoint 4 hrs,50%
same,mortality at 5 µg/cm2,Haematobia irritans; timepoint 24 hrs,70%
O=C(NCC1CC1)c1ccc(COc2ccc(OC(F)(F)F)cc2)cn1 [Compound 33],mortality at 200 ppm,[1]; timepoint 4 hrs,100%
same,mortality at 200 ppm,[1]; timepoint 24 hrs,100%
same,mortality at 5 µg/cm2,Haematobia irritans; timepoint 4 hrs,100%
same,mortality at 5 µg/cm2,Haematobia irritans; timepoint 24 hrs,100%
same,mortality at 5 µg/cm2,Stomoxys calcitrans; 4 hrs,80%
same,mortality at 5 µg/cm2,Stomoxys calcitrans; 24 hrs,80%
COC(CNC(=O)c1ccc(COc2cccc(OC(F)(F)F)c2)cn1)OC [Compound 44],mortality at 200 ppm,[1]; timepoint 4 hrs,100%
same,mortality at 200 ppm,[1]; timepoint 24 hrs,100%
same,mortality at 5 µg/cm2,Haematobia irritans; timepoint 4 hrs,80%
same,mortality at 5 µg/cm2,Haematobia irritans; timepoint 24 hrs,80%
O=C(NCC1CC1)c1ccc(COc2cccc(OC(F)(F)F)c2)cn1 [Compound 52],Contact SP Horn Fly PCT Mortality (%),Haematobia irritans; timepoint 4 hrs,80%
same,Contact SP Horn Fly PCT Mortality (%),Haematobia irritans; timepoint 24 hrs,80%
same,Contact SP Stable Fly PCT Mortality,Stomoxys calcitrans; 4 hrs,60%
same,Contact SP Stable Fly PCT Mortality,Stomoxys calcitrans; 24 hrs,80%
CC(C)CNC(=O)c1ccc(COc2cccc(OC(F)(F)F)c2)cn1 [Compound 54],mortality at 200 ppm,[1]; timepoint 4 hrs,0%
same,mortality at 200 ppm,[1]; timepoint 24 hrs,100%
same,mortality at 5 µg/cm2,Haematobia irritans; timepoint 4 hrs,100%
same,mortality at 5 µg/cm2,Haematobia irritans; timepoint 24 hrs,100%
Cc1cccc(OCc2ccc(C(=O)NCC(C)C)nc2)c1 [Compound 63],Contact SP Rhicicep PCT Mortality (%),[1]; timepoint 4 hrs,100%
same,Contact SP Rhicicep PCT Mortality (%),[1]; timepoint 24 hrs,100%
same,Contact SP Horn Fly PCT Mortality (%),Haematobia irritans; timepoint 4 hrs,100%
same,Contact SP Horn Fly PCT Mortality (%),Haematobia irritans; timepoint 24 hrs,100%
same,Contact SP Stable Fly PCT Mortality,Stomoxys calcitrans; 4 hrs,80%
same,Contact SP Stable Fly PCT Mortality,Stomoxys calcitrans; 24 hrs,80%
CCc1cccc(OCc2ccc(C(=O)NCC(OC)OC)nc2)c1 [Compound 65],mortality at 200 ppm,[1]; timepoint 4 hrs,80%
same,mortality at 200 ppm,[1]; timepoint 24 hrs,100%
same,mortality at 5 µg/cm2,Stomoxys calcitrans; 4 hrs,50%
same,mortality at 5 µg/cm2,Stomoxys calcitrans; 24 hrs,60%
C=C(C)CNC(=O)c1ccc(COc2cccc(CC)c2)cn1 [Compound 76],mortality at 200 ppm,[1]; timepoint 4 hrs,80%
same,mortality at 200 ppm,[1]; timepoint 24 hrs,100%
same,mortality at 5 µg/cm2,Haematobia irritans; timepoint 4 hrs,0%
same,mortality at 5 µg/cm2,Haematobia irritans; timepoint 24 hrs,0%
CCc1cccc(OCc2ccc(C(=O)NCC(C)C)nc2)c1 [Compound 77],mortality at 200 ppm,[1]; timepoint 4 hrs,100%
same,mortality at 200 ppm,[1]; timepoint 24 hrs,100%
same,mortality at 5 µg/cm2,Haematobia irritans; timepoint 4 hrs,100%
same,mortality at 5 µg/cm2,Haematobia irritans; timepoint 24 hrs,100%
same,mortality at 5 µg/cm2,Stomoxys calcitrans; 4 hrs,60%
same,mortality at 5 µg/cm2,Stomoxys calcitrans; 24 hrs,80%
COC(CNC(=O)c1ccc(COc2cc(F)cc(Br)c2)cn1)OC [Compound 107],mortality at 200 ppm,[1]; timepoint 4 hrs,0%
same,mortality at 200 ppm,[1]; timepoint 24 hrs,70%
same,mortality at 200 ppm,Ctenocephalides felis,90%
same,mortality at 5 µg/cm2,Haematobia irritans; timepoint 4 hrs,0%
same,mortality at 5 µg/cm2,Haematobia irritans; timepoint 24 hrs,0%
N#CCCNC(=O)c1ccc(COc2cc(F)cc(Br)c2)cn1 [Compound 108],mortality at 200 ppm,[1]; timepoint 4 hrs,70%
same,mortality at 200 ppm,[1]; timepoint 24 hrs,70%
same,mortality at 5 µg/cm2,Haematobia irritans; timepoint 4 hrs,100%
same,mortality at 5 µg/cm2,Haematobia irritans; timepoint 24 hrs,100%
same,mortality at 5 µg/cm2,Stomoxys calcitrans; 4 hrs,0%
same,mortality at 5 µg/cm2,Stomoxys calcitrans; 24 hrs,0%
O=C(NCC1CC1)c1ccc(COc2cc(F)cc(Br)c2)cn1 [Compound 119],Contact SP Horn Fly PCT Mortality (%),Haematobia irritans; timepoint 4 hrs,80%
same,Contact SP Horn Fly PCT Mortality (%),Haematobia irritans; timepoint 24 hrs,100%
same,Contact SP Stable Fly PCT Mortality,Stomoxys calcitrans; 4 hrs,60%
same,Contact SP Stable Fly PCT Mortality,Stomoxys calcitrans; 24 hrs,70%
O=C(NC1CCC1)c1ccc(COc2cc(F)cc(Br)c2)cn1 [Compound 122],Contact SP Rhicicep PCT Mortality (%),[1]; timepoint 4 hrs,0%
same,Contact SP Rhicicep PCT Mortality (%),[1]; timepoint 24 hrs,80%
same,Contact SP Horn Fly PCT Mortality (%),Haematobia irritans; timepoint 4 hrs,0%
same,Contact SP Horn Fly PCT Mortality (%),Haematobia irritans; timepoint 24 hrs,0%
CN(C)CC(C)(C)CNC(=O)c1ccc(COc2cc(F)cc(Br)c2)cn1 [Compound 124],mortality at 200 ppm,[1]; timepoint 4 hrs,70%
same,mortality at 200 ppm,[1]; timepoint 24 hrs,70%
same,mortality at 5 µg/cm2,Haematobia irritans; timepoint 4 hrs,100%
same,mortality at 5 µg/cm2,Haematobia irritans; timepoint 24 hrs,100%
CCCCNC(=O)c1ccc(COc2cc(F)cc(Br)c2)cn1 [Compound 127],mortality at 200 ppm,[1]; timepoint 4 hrs,90%
same,mortality at 200 ppm,[1]; timepoint 24 hrs,100%
same,mortality at 5 µg/cm2,Haematobia irritans; timepoint 4 hrs,70%
same,mortality at 5 µg/cm2,Haematobia irritans; timepoint 24 hrs,70%
CC(C)CNC(=O)c1ccc(OCc2ccc(OC(F)(F)F)cc2)cn1 [Compound 136],LDA SP H. cont. PCT Mot M,[2],89.2655%
O=C(NCC1CC1)c1ccc(COc2cccc(-c3cccc(F)c3)c2)cn1 [Compound 176],Contact SP Rhicicep PCT Mortality (%),[1]; timepoint 4 hrs,90%
same,Contact SP Rhicicep PCT Mortality (%),[1]; timepoint 24 hrs,100%
same,Assay: Minilnge Organism: C. felis Test Parameter: PCT Mortal,Ctenocephalides felis,70%
CCCNC(=O)c1ccc(COc2cccc(-c3cccc(F)c3)c2)cn1 [Compound 177],Contact SP Rhicicep PCT Mortality (%),[1]; timepoint 4 hrs,80%
same,Contact SP Rhicicep PCT Mortality (%),[1]; timepoint 24 hrs,90%
same,Assay: Minilnge Organism: C. felis Test Parameter: PCT Mortal,Ctenocephalides felis,40%
C=C(C)CNC(=O)c1ccc(COc2cccc(-c3cccc(F)c3)c2)cn1 [Compound 179],Contact SP Rhicicep PCT Mortality (%),[1]; timepoint 4 hrs,100%
same,Contact SP Rhicicep PCT Mortality (%),[1]; timepoint 24 hrs,100%
same,Assay: Minilnge Organism: C. felis Test Parameter: PCT Mortal,Ctenocephalides felis,70%
COC(CNC(=O)c1ccc(COc2cccc(-c3ccccc3)c2)cn1)OC [Compound 185],Assay: Minilnge Organism: C. felis Test Parameter: PCT Mortal,Ctenocephalides felis,90%
C=C(C)CNC(=O)c1ccc(COc2cccc(-c3ccccc3)c2)cn1 [Compound 197],Assay: Minilnge Organism: C. felis Test Parameter: PCT Mortal,Ctenocephalides felis,90%
CC(C)CNC(=O)c1ccc(COc2cccc(-c3ccccc3)c2)cn1 [Compound 198],Contact SP Rhicicep PCT Mortality (%),[1]; timepoint 4 hrs,100%
same,Contact SP Rhicicep PCT Mortality (%),[1]; timepoint 24 hrs,100%
same,Assay: Minilnge Organism: C. felis Test Parameter: PCT Mortal,Ctenocephalides felis,90%
CC(C)CNC(=O)c1ccc(CCOc2ccc(C(F)(F)F)cc2)cn1 [Compound 206],mortality at 200 ppm,[1]; timepoint 4 hrs,100%
same,mortality at 200 ppm,[1]; timepoint 24 hrs,100%
same,LDA SP H. cont. PCT Mot M,[2],100%
O=C(NCC1CC1)c1ccc(CCOc2ccc(C(F)(F)F)cc2)cn1 [Compound 207],Contact SP Horn Fly PCT Mortality (%),Haematobia irritans; timepoint 4 hrs,80%
same,Contact SP Horn Fly PCT Mortality (%),Haematobia irritans; timepoint 24 hrs,80%
same,LDA SP H. cont. PCT Mot M,[2],100%
CCC(C)CNC(=O)c1ccc(CCOc2ccc(C(F)(F)F)cc2)cn1 (stereo not shown) [Compound 219],mortality at 200 ppm,[1]; timepoint 4 hrs,80%
same,mortality at 200 ppm,[1]; timepoint 24 hrs,90%
same,LDA SP H. cont. PCT Mot M,[2],90%
CC(C)CNC(=O)c1ccc(CCOc2ccc(Cl)c(OC(F)(F)F)c2)cn1 [Compound 223],Contact SP Rhicicep PCT Mortality (%),[1]; timepoint 4 hrs,0%
same,Contact SP Rhicicep PCT Mortality (%),[1]; timepoint 24 hrs,0%
same,LDA SP H. cont. PCT Mot M,[2],91%
CC(C)CNC(=O)c1ccc(CCOc2ccc(F)c(F)c2)cn1 [Compound 224],LDA SP H. cont. PCT Mot M,[2],98%
O=C(NCC1CC1)c1ccc(CCOc2cccc(OC(F)(F)F)c2)cn1 [Compound 243],mortality at 200 ppm,[1]; timepoint 4 hrs,100%
same,mortality at 200 ppm,[1]; timepoint 24 hrs,100%
same,mortality at 200 ppm,Ctenocephalides felis,80%

# From US8946270B2, “Amido-pyridyl ether compounds and compositions and their use against parasites” (Merial Limited, priority 2011, dated 2015)
